Series [1] deals with Ca^2+ signals (calcium ion response). Description: Live GFP fluorescence imaging of Ca^2+ signals in GCaMP-expressing plants after gas exposure. It is filed as in vivo, Arabidopsis thaliana. Particulars: about 200 ppm or lower, 10 seconds. From the text: An experiment was implemented, in which a plant was exposed to dinitrogen pentoxide to confirm induction of Ca^2+ signals (calcium ion response) as information of injuries similar to insect damages or physical injuries, using the plant disease resistance inducing device 10 illustrated in FIG. 1.
First, Ca^2+ signals that had appeared by exposing the whole body of Arabidopsis thaliana to dinitrogen pentoxide were observed. In the experiment, the concentration of dinitrogen pentoxide in the gas for the exposure was set to about 200 ppm or lower, and the exposure time was set to 10 seconds. For comparison, Ca^2+ signals that had appeared by exposing the whole body of Arabidopsis thaliana to dry air were also observed under the same condition. FIG. 2 presents states of Arabidopsis thaliana before the exposure, and states of the Ca^2+ signals 60 seconds after the termination of the exposure.
Next, Ca^2+ signals that had appeared by exposing one leaf of Arabidopsis thaliana to dinitrogen pentoxide were observed. In the experiment, only one leaf of Arabidopsis thaliana (leaf surrounded by dotted line in FIG. 3(a)) was exposed to dinitrogen pentoxide. The concentration of dinitrogen pentoxide in the gas for the exposure was set to about 200 ppm or lower, and the exposure time was set to 10 seconds.

The subject of series [2] is PDF1.2, ORA59, PAD3, CYP71A12, NIT2, and WRKY26. Description: RNA sequencing (RNA-seq) gene expression analysis after gas exposure. It is filed as in vivo, Arabidopsis thaliana. The method, then: A plant was exposed to dinitrogen pentoxide using the plant disease resistance inducing device 10 illustrated in FIG. 1, and a gene expression was analyzed by RNA sequencing (RNA-seq) and quantitative real-time PCR (qRT-PCR). In the RNA-seq analysis, Arabidopsis thaliana at 5 week of seeding was exposed to dinitrogen pentoxide once a day for 3 days. In each exposure, Arabidopsis thaliana was exposed to dinitrogen pentoxide from a distance of 5 cm for 20 seconds. A concentration of dinitrogen pentoxide in the gas for the exposure was set to about 200 ppm or lower. Twenty-four hours after the last exposure, leaves that had fully developed were collected, from which the total RNA was extracted, followed by RNA-seq analysis. For comparison, as a control plot, a leaf exposed to dry air under the same condition was also subjected to the RNA-seq analysis.
Genes with expression levels not less than twice as high as that of the control plot, induced by the dinitrogen pentoxide exposure, and genes with reduced expression levels not more than half as high as that of the control plot were extracted. As a result, 1304 genes with twice or more of induced expression levels, and 1209 genes with expression levels reduced to half or less were found.
Based on the result of the RNA-seq, six genes: PDF1.2, ORA59, PAD3, CYP71A12, NIT2, and WRKY26, were selected as candidate marker genes for the dinitrogen pentoxide exposure. Herein, PDF1.2 is an antimicrobial peptide gene and is often used as a marker gene for jasmonic acid and ethylene. ORA59 is a gene related to regulation of PDF1.2 expression. PAD3 is a gene related to biosynthesis of an antimicrobial substance camalexin, which is synthesized and induced by jasmonic acid. CYP71A12 is a gene related to a tryptophan metabolism at an upstream of PAD3. NIT2 is a gene related to biosynthesis of auxin that is another plant hormone derived from tryptophan. WRKY26 is a gene which, as is known, functionally overlaps with a transcription factor WRKY33 that regulates jasmonic acid signals.

The test system is the same in series [3]. Description: qRT-PCR time course of marker gene expression relative to ACT2 gene. Format: in vivo, Arabidopsis thaliana. To be noted: single 20 seconds exposure from 5 cm. The method, then:
Subsequently, the expression of each of the selected genes was analyzed by qRT-PCR. In the qRT-PCR, Arabidopsis thaliana at 5 week of seeding was exposed to dinitrogen pentoxide from a distance of 5 cm for 20 seconds. The dinitrogen pentoxide exposure was conducted only once. The whole above-ground part was sampled 1, 3, 6, 12, 24, and 48 hours after the exposure, from which the total RNA was extracted and then subjected to qRT-PCR. Using ACT2 gene as a control for endogenous genes, an expression level of each gene was determined as a value relative to the ACT2 gene expression level (Relative expression to ACT2 gene).
For comparison, time-dependent changes in the expression levels of each gene in Arabidopsis thaliana exposed to dry air under the same condition were also determined, and the results are presented in FIG. 5. For the experiment, three independent individuals were used, and the mean values and standard deviations of the three individuals are presented in FIG. 5. The same experiment was conducted twice independently, and the same results were obtained.
On the technique in general: Real-time PCR tracks product formation cycle by cycle.

Series [4] relates to cucumber mosaic virus (CMV) Macula lutea strain. The series can be described thus: Suppression of viral growth: ELISA of virus coat protein in inoculated leaves. It is filed as in vivo. Particulars: Arabidopsis thaliana, 20 seconds once a day for 3 days, about 200 ppm or lower; inoculated 24 hours after last exposure; measured 2 days after inoculation. From the text: A plant was exposed to dinitrogen pentoxide using the plant disease resistance inducing device 10 illustrated in FIG. 1, and subjected to an experiment for examining an effect of suppressing viral growth. In the experiment, Arabidopsis thaliana at 5 week of seeding was exposed to dinitrogen pentoxide once a day for 3 days. In each exposure, Arabidopsis thaliana was exposed to dinitrogen pentoxide from a distance of 5 cm for 20 seconds. A concentration of dinitrogen pentoxide in the gas for the exposure was set to about 200 ppm or lower. Twenty-four hours after the last exposure, leaves that had fully developed were inoculated with a cucumber mosaic virus (CMV) Macula lutea strain by a friction inoculation method. Two days after the CMV inoculation, viral loads in the inoculated leaves were quantitatively measured by Enzyme-Linked Immuno Sorbent Assay (ELISA) method using an anti-CMV coat protein antibody.
For comparison, virus loads of Arabidopsis thaliana exposed to dry air and inoculated with CMV under the same condition, and Arabidopsis thaliana exposed to dry air and not inoculated with CMV (Mock) under the same condition were also quantitatively measured, and the results are presented in FIG. 6. For the experiment, six independent individuals were used, and the mean values and standard deviations of the six individuals are presented in FIG. 6. […]
For orientation: An ELISA detects its analyte on a solid surface through an enzyme-linked reagent.

Another series deals with Arabidopsis thaliana. Description: Observation of leaf damage after gas exposure. It is filed as in vivo. To be noted: immediately after exposure and the next day.
Where [5] appears, read: 20 seconds once a day for 3 days, about 200 ppm or lower, leaves 24 hours after last exposure.

The results in this text go back to patent publication US20240407315A1, “PLANT DISEASE […] METHOD, PLANT DISEASE […] DEVICE, AND PLANT DISEASE […] AGENT” (TOHOKU UNIVERSITY, priority 2021, published 2024).

Consider `O=[N+]([O-])O[N+](=O)[O-]` [dinitrogen pentoxide], for which the “time to activation of the Ca^2+ signals in the leaf directly exposed” value in series [1] (one leaf exposed) is listed as “about 20 seconds”. Also, the “spread of Ca^2+ signals after exposure of one leaf” value in series [1] (one leaf exposed, observed up to 6 minutes) is “spread to all leaves in the whole body through sieve tubes”. Further, the “generation of Ca^2+ signals over the plant body” value in series [1] (whole body exposed) is listed as “slowly generated over the whole body”. The “Ca^2+ signals after whole-body exposure” value in series [1] (whole body exposed, observed 60 seconds after exposure, dry air gave no signals) is reported as “Ca^2+ signals were observed”. Further, the “gene ontology analysis result” value in series [2] (20 seconds once a day for 3 days, about 200 ppm or lower) is “jasmonic acid signals were activated”. In series [2] (setting [5]), the “number of genes with expression levels reduced to half or less vs control plot” value stood at 1209 genes and the “number of genes with twice or more of induced expression levels vs control plot” value was found to be 1304 genes. In addition, the At-N2O5-_TPM in series [2] (gene CYP71A12, control 0.000000) worked out at 0.797 TPM. The At-N2O5-_TPM in series [2] (gene NIT2, control 0.000000) worked out at 1.917 TPM. The compound further had an At-N2O5-_TPM in series [2] (gene ORA59, control 0.074135) of 2.341 TPM. For the same compound, in series [2] (gene PAD3, control 0.312642), the At-N2O5-_TPM is on record as 1.293 TPM. The At-N2O5-_TPM in series [2] (gene WRKY26, control 0.035706) turned out to be 0.7565 TPM. Further, in series [3], the “time after exposure from which ODR59 expression was induced” value came out at 1 h, the “time after exposure from which PDF1.2 expression was induced” value stood at 6 h, the “time of peak of transiently induced NIT2 expression” value came to 12 h and the “time until which high ODR59 expression level was maintained” value was 48 h. Also, in series [3], the “time until which high PDF1.2 expression level was maintained” value is given as “at least 48 hours”. The “CMV growth (accumulation of virus coat protein) compared to dry air exposure” value in series [4] is listed as “significantly suppressed”. Besides, the “state of leaves after exposure” value in the series with Arabidopsis thaliana was “not to curl up but to grow without withering”.
As for `O=[O+][O-]` [ozone, reference compound], in the series with Arabidopsis thaliana, the “state of leaves after exposure” value was “curl up immediately after the ozone exposure and wither the next day”.
